System: Human immunodeficiency virus 1
Assay: Binding to 176-mer RNA from the packaging region of HIV-1 (LAI) and value of binding constant K is determined
Type: functional

N=C(N)NCC1OC(OC2C(CO)OC(OC3C(O)C(NC(=N)N)CC(NC(=N)N)C3OC3OC(CNC(=N)N)C(O)C(O)C3NC(=N)N)C2O)C(NC(=N)N)C(O)C1O (stereo not given) and NC[C@@H]1O[C@H](O[C@H]2[C@@H](O)[C@H](O[C@@H]3[C@@H](O)[C@H](N)C[C@H](N)[C@H]3O[C@H]3O[C@H](CN)[C@@H](O)[C@H](O)[C@H]3N)O[C@@H]2CO)[C@H](N)[C@@H](O)[C@@H]1O are within 1.5-fold of each other in K: 100000 M⁻¹ for the first, 120000 M⁻¹ for the second.

First: NCC1OC(OC2C(CSCCNc3c4ccccc4nc4ccccc34)OC(OC3C(O)C(N)CC(N)C3OC3OC(CN)C(O)C(O)C3N)C2O)C(N)C(O)C1O (stereo not given)
Second: NC[C@@H]1O[C@H](O[C@H]2[C@@H](O)[C@H](O[C@@H]3[C@@H](O)[C@H](N)C[C@H](N)[C@H]3O[C@H]3O[C@H](CO)[C@@H](O)[C@H](O)[C@H]3N)O[C@@H]2CO)[C@H](N)[C@@H](O)[C@@H]1O
The K of the first is 2.7-fold lower: 16000 M⁻¹ for the first, 43000 M⁻¹ for the second.

With NCC1O[C@H](O[C@H]2[C@@H](O)[C@H](O[C@H]3[C@H](O)[C@@H](N)C[C@@H](N)[C@@H]3O[C@H]3O[C@H](CN)[C@@H](O)[C@H](O)[C@H]3N)O[C@@H]2CSCCOCCSSCCOCCSC[C@H]2O[C@@H](O[C@H]3[C@H](O)[C@@H](N)C[C@@H](N)[C@@H]3O[C@H]3O[C@H](CN)[C@@H](O)[C@H](O)[C@H]3N)[C@H](O)[C@@H]2O[C@@H]2OC(CN)[C@H](O)[C@@H](O)[C@@H]2N)[C@H](N)[C@@H](O)[C@@H]1O (stereo not given in full) the K was 3800 M⁻¹.

Reference: ChEMBL document CHEMBL1135854, “Absorption studies on aminoglycoside binding to the packaging region of human immunodeficiency virus type-1” (Bioorg Med Chem Lett, 2002)
